The target in one assay is T1, MAT2A homodimer (Homo sapiens, UniProt P31153).
T1 construct: inferred from the Ni sepharose purification and imidazole elution; made in house; host or cells: SF9 insect cells, recombinant baculovirus (Bac to Bac, pFASTBAC1)
Description: MAT2A biochemical assay (liberated phosphate, PiColorLock Gold). The conditions noted are these: Table 5a; MAT2A biochemical assay; read-out: Enzyme Inhibition. In short, it runs like this: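 Readout is liberated phosphate (PiColorLock Gold), stoichiometric with SAM production, quantified against a potassium phosphate standard curve. Enzyme: recombinant MAT2A homodimer from Sf9, equilibrated 60 min at 25 °C with compound before 60 min reaction with substrate mix containing 500 μM ATP and 400 μM L-methionine.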

Another assay relates to HCT116 MTAP-/-. Description: Inhibition of cellular proliferation (Cell Titer Glo), HCT116 MTAP-/-. The format is cell-based, human. Conditions: Homo sapiens, HCT-116, 96 h, Table 5a, 4 days, read-out: 4 Day Relative Growth Inhibition (MTAP −/−). In short, it runs like this:
(§1)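 After 4 days of compound exposure at 37 °C, starting 24 h after plating, growth of the MTAP-wildtype and MTAP-deleted HCT116 pair was measured as ATP luminescence (CellTiter-Glo). The proliferation index was signal minus no-cell blank, divided by blank-corrected 0.2% DMSO control.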
Background: In ATP-based viability assays light output follows the ATP content of the culture.

The test system of a further assay is HCT116 MTAP+/+. Description: Inhibition of cellular proliferation (Cell Titer Glo), HCT116 MTAP+/+. It counts as cell-based. The conditions noted are these: Homo sapiens, HCT-116, 96 h, Table 5a, 4 days, read-out: 4 Day Relative Growth Inhibition (MTAP +/+). An outline of the steps: as §1
In assay [1] the test system is SAM in HCT116 MTAP-deleted cells. Description: Cellular assay of target engagement (SAM), LC-MS/MS. The format is cell-based, human. The conditions noted are these: Homo sapiens, HCT-116, Table 5a, 72 h, read-out: Cell 72 h SAM Inhibition (MTAP −/−). An outline of the steps:
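Target engagement was read as intracellular SAM, measured by LC-MS/MS with d3-SAM as internal standard in methanol/acetic acid extracts. These came from MTAP-deleted HCT116 colon carcinoma cells exposed to inhibitor for 72 hrs.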

SMILES strings stand for the structures. A value given as a limit tells only on which side of the number the result lay.

T1 sequence (P31153 whole entry): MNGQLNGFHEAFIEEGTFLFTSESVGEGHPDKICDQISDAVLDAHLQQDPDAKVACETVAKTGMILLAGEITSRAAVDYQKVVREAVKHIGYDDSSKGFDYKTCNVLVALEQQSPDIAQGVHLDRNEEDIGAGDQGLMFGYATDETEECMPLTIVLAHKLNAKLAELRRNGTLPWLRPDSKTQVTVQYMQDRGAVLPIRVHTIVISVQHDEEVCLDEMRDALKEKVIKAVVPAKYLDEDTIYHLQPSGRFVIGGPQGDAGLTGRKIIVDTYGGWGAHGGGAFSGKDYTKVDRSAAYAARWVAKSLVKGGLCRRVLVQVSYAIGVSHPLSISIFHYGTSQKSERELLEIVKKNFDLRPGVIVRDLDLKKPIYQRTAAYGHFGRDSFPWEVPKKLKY

Regarding `[2H]C([2H])([2H])Oc1ccc(N2C(=O)N(c3ccc4nn(CCF)cc4c3)Cc3ccc(OCC(F)F)nc32)cc1` [Example 129, 7-(2,2-difluoroethoxy)-3-(2-(2-fluoroethyl)-2H-indazol-5-yl)-1-(4-methoxy-d3-phenyl)-3,4-dihydropyrido[2,3-d]pyrimidin7-2(1H)-one], the IC50 at MAT2A homodimer was under 100 nM; with HCT116 MTAP-/- it was 100 to 1000 nM; in the assay on HCT116 MTAP+/+, over 1000 nM; in assay [1], 100 to 1000 nM.

Regarding `CCOc1ccc2c(n1)N(c1ccc(OC(F)F)cc1)C(=O)N(c1ccc3nn(C)cc3c1)C2` [Example 131, 1-(4-(difluoromethoxy)phenyl)-7-ethoxy-3-(2-methyl-2H-indazol-5-yl)-3,4-dihydropyrido[2,3-d]pyrimidin-2(1H)-one], the IC50 was under 100 nM at MAT2A homodimer, 100 to 1000 nM in the assay on HCT116 MTAP-/-, 100 to 1000 nM in the assay with HCT116 MTAP+/+ and under 100 nM in assay [1].

As to `COc1ccc(N2C(=O)N(c3ccc4[nH]cnc4c3)Cc3cnc(NCC(F)(F)F)nc32)cc1` [Example 234, 3-(1H-benzo[d]imidazol-5-yl)-1-(4-methoxyphenyl)-7-((2,2,2-trifluoroethyl)amino)-3,4-dihydropyrimido[4,5-d]pyrimidin-2(1H)-one], the IC50 was under 100 nM on MAT2A homodimer, 100 to 1000 nM in the assay on HCT116 MTAP-/-, over 1000 nM with HCT116 MTAP+/+ and 100 to 1000 nM in assay [1].

With `[2H]C([2H])([2H])Oc1ccc(N2C(=O)N(c3ccc4nn(C)cc4c3)Cc3c(N)nc(NCC(F)(F)F)nc32)cc1` [Example 430, 5-amino-1-(4-(methoxy-d3)phenyl)-3-(2-methyl-2H-indazol-5-yl)-7-((2,2,2-trifluoroethyl)amino)-3,4-dihydropyrimido[4,5-d]pyrimidin-2(1H)-one], the IC50 on MAT2A homodimer is under 100 nM; with HCT116 MTAP-/- it was under 100 nM; with HCT116 MTAP+/+, over 1000 nM; in assay [1], under 100 nM.

For `CCOc1ccc2c(n1)N(c1ccc(OC(F)F)cc1)C(=O)N(c1ccc(OC)cc1)C2` [Example 130, 1-(4-(difluoromethoxy)phenyl)-7-ethoxy-3-(4-methoxyphenyl)-3,4-dihydropyrido[2,3-d]pyrimidin-2(1H)-one], the IC50 was under 100 nM on MAT2A homodimer, 100 to 1000 nM in the assay with HCT116 MTAP-/-, over 1000 nM in the assay on HCT116 MTAP+/+ and 100 to 1000 nM in assay [1].

For `[2H]C([2H])([2H])Oc1ccc(N2C(=O)N(c3ccc4nn(C)cc4c3)Cc3ccc(OCCC)nc32)cc1` [Example 165, 1-(4-methoxy-d3-phenyl)-3-(2-methyl-2H-indazol-5-yl)-7-propoxy-3,4-dihydropyrido[2,3-d]pyrimidin-2(1H)-one], the IC50 at MAT2A homodimer is under 100 nM; in the assay on HCT116 MTAP-/-, 100 to 1000 nM; in the assay with HCT116 MTAP+/+ it was over 1000 nM; in assay [1] it was 100 to 1000 nM.

With `Cn1cc2cc(N3Cc4ccc(OCC(F)F)nc4N(c4ccc5[nH]nnc5c4)C3=O)ccc2n1` [Example 179, 1-(1H-benzo[d][1,2,3]triazol-5-yl)-7-(2,2-difluoroethoxy)-3-(2-methyl-2H-indazol-5-yl)-3,4-dihydropyrido[2,3-d]pyrimidin-2(1H)-one], the IC50 is under 100 nM at MAT2A homodimer, over 1000 nM in the assay with HCT116 MTAP-/-, over 1000 nM in the assay on HCT116 MTAP+/+ and over 1000 nM in assay [1].

As to `[2H]C([2H])([2H])Oc1ccc(N2C(=O)N(c3ccc4nn(C)cc4c3)Cc3ccc(OCC(F)F)nc32)cc1` [Example 136, 7-(2,2-difluoroethoxy)-1-(4-(methoxy-d3)phenyl)-3-(2-methyl-2H-indazol-5-yl)-3,4-dihydropyrido[2,3-d]pyrimidin-2(1H)-one], the IC50 was under 100 nM at MAT2A homodimer, under 100 nM in the assay on HCT116 MTAP-/-, 100 to 1000 nM in the assay on HCT116 MTAP+/+ and under 100 nM in assay [1].

With `COc1ccc(N2C(=O)N(c3cn[nH]c3)Cc3cnc(NCC(F)(F)F)nc32)cc1` [Example 231, 1-(4-methoxyphenyl)-3-(1H-pyrazol-4-yl)-7-((2,2,2-trifluoroethyl)amino)-3,4-dihydropyrimido[4,5-d]pyrimidin-2(1H)-one], the IC50 is 100 to 1000 nM at MAT2A homodimer, over 1000 nM in the assay with HCT116 MTAP-/-, over 1000 nM in the assay on HCT116 MTAP+/+ and 100 to 1000 nM in assay [1].

For the compound `Cn1cc2cc(N3Cc4cc(F)c(OCC(F)F)nc4N(c4ccc(OC(F)F)cc4)C3=O)ccc2n1` [Example 184], the IC50 at MAT2A homodimer was under 100 nM; in the assay with HCT116 MTAP-/- it was 100 to 1000 nM; in the assay on HCT116 MTAP+/+ it was over 1000 nM; in assay [1] it was 100 to 1000 nM.

With `[2H]C([2H])([2H])Oc1ccc(N2C(=O)N(c3ccc4nn(CC(F)(F)F)cc4c3)Cc3ccc(OCC(F)F)nc32)cc1` [Example 120, 7-(2,2-difluoroethoxy)-1-(4-methoxy-d3-phenyl)-3-(2-(2,2,2-trifluoroethyl)-2H-indazol-5-yl)-3,4-dihydropyrido[2,3-d]pyrimidin-2(1H)-one], the IC50 at MAT2A homodimer was under 100 nM; in the assay on HCT116 MTAP-/-, 100 to 1000 nM; in the assay on HCT116 MTAP+/+ it was over 1000 nM; in assay [1], 100 to 1000 nM.

Turning to `[2H]C([2H])([2H])Oc1ccc(N2C(=O)N(c3ccc4nn(C)cc4c3)Cc3cnc(NCC)nc32)cc1` [Example 419, 7-(ethylamino)-1-(4-(methoxy-d3)phenyl)-3-(2-methyl-2H-indazol-5-yl)-3,4-dihydropyrimido[4,5-d]pyrimidin-2(1H)-one], the IC50 on MAT2A homodimer was under 100 nM; with HCT116 MTAP-/- it was 100 to 1000 nM; in the assay on HCT116 MTAP+/+, 100 to 1000 nM; in assay [1], 100 to 1000 nM.

In the case of `[2H]C([2H])([2H])Oc1ccc(N2C(=O)N(c3ccc4nn(C)cc4c3)Cc3ncc(OCC(F)F)nc32)cc1` [Example 181, 7-(2,2-difluoroethoxy)-1-(4-(methoxy-d3)phenyl)-3-(2-methyl-2H-indazol-5-yl)-3,4-dihydropteridin-2(1H)-one], the IC50 at MAT2A homodimer is under 100 nM; in the assay on HCT116 MTAP-/-, under 100 nM; in the assay on HCT116 MTAP+/+, over 1000 nM; in assay [1] it was under 100 nM.

Regarding `CCOc1ccc2c(n1)N(c1ccc(OC)cc1)C(=O)N(c1ccc3ncn(C)c3c1)C2` [Example 138, 7-ethoxy-1-(4-methoxyphenyl)-3-(1-methyl-1H-benzo[d]imidazol-6-yl)-3,4-dihydropyrido[2,3-d]pyrimidin-2(1H)-one], the IC50 on MAT2A homodimer is under 100 nM; in the assay with HCT116 MTAP-/- it was 100 to 1000 nM; in the assay on HCT116 MTAP+/+, over 1000 nM; in assay [1], under 100 nM.

Turning to `Cn1cc2cc(N3Cc4ncc(NCC(F)(F)F)cc4N(c4ccc(OC(F)F)cc4)C3=O)ccc2n1` [Example 428, 1-(4-(difluoromethoxy)phenyl)-3-(2-methyl-2H-indazol-5-yl)-7-((2,2,2-trifluoroethyl)amino)-3,4-dihydropyrido[3,2-d]pyrimidin-2(1H)-one], the IC50 was under 100 nM at MAT2A homodimer, under 100 nM with HCT116 MTAP-/-, over 1000 nM in the assay with HCT116 MTAP+/+ and under 100 nM in assay [1].

Turning to `CCOc1ccc2c(n1)N(c1ccc(OC(F)F)cc1)C(=O)N(c1ccc(=O)n(C)c1)C2` [Example 107, 1-(4-(difluoromethoxy)phenyl)-7-ethoxy-3-(1-methyl-6-oxo-1,6-dihydropyridin-3-yl)-3,4-dihydropyrido[2,3-d]pyrimidin-2(1H)-one], the IC50 is under 100 nM at MAT2A homodimer, 100 to 1000 nM with HCT116 MTAP-/-, over 1000 nM in the assay on HCT116 MTAP+/+ and 100 to 1000 nM in assay [1].

Consider `CCOc1ccc2c(n1)N(c1ccc(OC(F)F)cc1)C(=O)N(c1ccc3nccn3c1)C2` [Example 101, 1-(4-(difluoromethoxy)phenyl)-7-ethoxy-3-(imidazo[1,2-a]pyridin-6-yl)-3,4-dihydropyrido[2,3-d]pyrimidin-2(1H)-one], for which the IC50 on MAT2A homodimer was under 100 nM; with HCT116 MTAP-/-, 100 to 1000 nM; with HCT116 MTAP+/+, over 1000 nM; in assay [1] it was 100 to 1000 nM.

In the case of `CCOc1ccc2c(n1)N(c1ccc(Cl)cc1)C(=O)N(c1ccc3nn(C)cc3c1)C2` [Example 146, 1-(4-chlorophenyl)-7-ethoxy-3-(2-methyl-2H-indazol-5-yl)-3,4-dihydropyrido[2,3-d]pyrimidin-2(1H)-one], the IC50 on MAT2A homodimer was under 100 nM; in the assay with HCT116 MTAP-/-, 100 to 1000 nM; with HCT116 MTAP+/+ it was over 1000 nM; in assay [1], under 100 nM.

As to `CCOc1ccc2c(n1)N(c1ccc(OC(F)F)cc1)C(=O)N(c1ccc3ncccc3c1)C2` [Example 112, 1-(4-(difluoromethoxy)phenyl)-7-ethoxy-3-(quinolin-6-yl)-3,4-dihydropyrido[2,3-d]pyrimidin-2(1H)-one], the IC50 on MAT2A homodimer is under 100 nM; in the assay on HCT116 MTAP-/- it was 100 to 1000 nM; with HCT116 MTAP+/+, over 1000 nM; in assay [1], 100 to 1000 nM.

Take `CCOc1ccc2c(n1)N(c1ccc(OC(F)F)cc1)C(=O)N(c1ccc3nncn3c1)C2` [Example 108, 3-([1,2,4]triazolo[4,3-a]pyridin-6-yl)-1-(4-(difluoromethoxy)phenyl)-7-ethoxy-3,4-dihydropyrido[2,3-d]pyrimidin-2(1H)-one]: the IC50 at MAT2A homodimer is under 100 nM; with HCT116 MTAP-/-, 100 to 1000 nM; in the assay with HCT116 MTAP+/+, over 1000 nM; in assay [1], 100 to 1000 nM.

Source of the values: patent US20220098203A1 (priority 2018, published 2022).
